Measurements published in PubChem BioAssay (NCI).
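Results reflect a 48-hour exposure of cells in 96-well plates to compound at five concentrations. The concentration for full growth arrest is given as TGI.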

Key:
Assay in all cases: inhibition of tumour cell growth, NCI panel, 48 h
M14 melanoma = tested on: M14 melanoma
UACC-257 melanoma = tested on: UACC-257 melanoma
SN12C renal = tested on: SN12C renal
K-562 leukemia = tested on: K-562 leukemia
NCI-H226 lung = tested on: NCI-H226 lung
NCI/ADR-RES ovarian = tested on: NCI/ADR-RES ovarian
MCF7 breast = tested on: MCF7 breast
MDA-MB-231 breast = tested on: MDA-MB-231 breast
HCT-15 colon = tested on: HCT-15 colon
SK-OV-3 ovarian = tested on: SK-OV-3 ovarian
U251 CNS = tested on: U251 CNS
UO-31 renal = tested on: UO-31 renal
CCRF-CEM leukemia = tested on: CCRF-CEM leukemia
MALME-3M melanoma = tested on: MALME-3M melanoma
LOX IMVI melanoma = tested on: LOX IMVI melanoma
OVCAR-3 ovarian = tested on: OVCAR-3 ovarian
NCI-H522 lung = tested on: NCI-H522 lung
SW-620 colon = tested on: SW-620 colon
HS 578T breast = tested on: HS 578T breast
HOP-92 NSCLC = tested on: HOP-92 NSCLC

Row | SMILES | TGI (M14 melanoma) | TGI (UACC-257 melanoma) | TGI (SN12C renal) | TGI (K-562 leukemia) | TGI (NCI-H226 lung) | TGI (NCI/ADR-RES ovarian) | TGI (MCF7 breast) | TGI (MDA-MB-231 breast) | TGI (HCT-15 colon) | TGI (SK-OV-3 ovarian) | TGI (U251 CNS) | TGI (UO-31 renal) | TGI (CCRF-CEM leukemia) | TGI (MALME-3M melanoma) | TGI (LOX IMVI melanoma) | TGI (OVCAR-3 ovarian) | TGI (NCI-H522 lung) | TGI (SW-620 colon) | TGI (HS 578T breast) | TGI (HOP-92 NSCLC)
1 | O/N=C1/CC2(N3CCOCC3)C3CC/C(=N\O)C2CC1(Cc1ccccc1)C3 (stereo unspecified) | > 100 µM | > 100 µM | > 100 µM | > 100 µM | > 100 µM | > 100 µM | > 100 µM | > 100 µM | > 100 µM | > 100 µM | > 100 µM | > 100 µM | > 100 µM | > 100 µM | > 100 µM | > 100 µM | > 100 µM | > 100 µM |  | 
2 | CC(C)(C)OC(=O)NCCCC(=O)NC1(c2cc3ccccc3s2)CCCCC1 | 40.1 µM | 31.9 µM | 35.9 µM | 51.4 µM |  | 70 µM | 41 µM |  | 45.5 µM | 99.5 µM |  | 14.8 µM | 28.4 µM | 37 µM | 29.6 µM | 39.2 µM | 34.1 µM | 52.8 µM | 45.8 µM | 37.6 µM
3 | CCN(CC)c1ccc2nc3ccc(N=Nc4c(O)ccc5ccccc45)cc3[n+](-c3ccccc3)c2c1 | > 100 µM | > 100 µM | > 100 µM | > 100 µM | > 100 µM | > 100 µM |  | > 100 µM | > 100 µM | > 100 µM | > 100 µM | > 100 µM | > 100 µM | > 100 µM |  | > 100 µM | > 100 µM | > 100 µM | > 100 µM | > 100 µM
4 | CN1C(=O)C(O)CC1c1ccccc1C(F)(F)F (stereo unspecified) | > 100 µM | > 100 µM | > 100 µM |  | > 100 µM | > 100 µM | > 100 µM | > 100 µM | > 100 µM | > 100 µM | > 100 µM | > 100 µM | > 100 µM | > 100 µM | > 100 µM | > 100 µM | > 100 µM | > 100 µM |  | > 100 µM
5 | CN=C(N)c1ccc(N=C(N)c2ccc(C(N)=Nc3ccc(C(N)=NC)cc3)cc2)cc1 | > 100 µM | > 100 µM | > 100 µM | > 100 µM | > 100 µM |  |  |  | > 100 µM | > 100 µM | > 100 µM | > 100 µM | > 100 µM | > 100 µM | > 100 µM | > 100 µM | > 100 µM | > 100 µM |  | > 100 µM
6 | CCN(CC)Cc1ccc(C(=S)Nc2ccc(C)cc2)s1 | 28.9 µM | 24.1 µM |  | 26.4 µM |  | 51.9 µM | 25.1 µM |  | 32.3 µM | 31.1 µM | 30 µM | 28.9 µM | 30.8 µM | 32.5 µM | 30.2 µM | 70.9 µM | 28.9 µM | 45.3 µM | 16.7 µM | 
7 | CN(C)c1nncc2n[nH]nc12 | > 100 µM | > 100 µM | > 100 µM | > 100 µM | > 100 µM | > 100 µM | > 100 µM |  | > 100 µM | > 100 µM | > 100 µM | > 100 µM | > 100 µM | > 100 µM | > 100 µM | > 100 µM | > 100 µM | > 100 µM |  | > 100 µM
8 | CC(=O)O[C@@]12CO[C@@H]1C[C@@H](O)[C@@]1(C)C(=O)[C@H](O)C3=C(C)[C@@H](OC(=O)[C@H](O)[C@@H](NC(=O)c4ccccc4)c4ccccc4)C[C@@](O)([C@@H](OC(=O)c4ccccc4)C12)C3(C)C (stereo partly specified) | > 100 µM | > 100 µM | > 100 µM | > 100 µM | 81.9 µM | 74.4 µM | > 100 µM | 43.8 µM | > 100 µM | > 100 µM | > 100 µM | > 78.8 µM | > 67.5 µM |  | 41.9 µM |  |  | > 100 µM |  | 
9 | CN(C(=O)C1=CCC2(CC1)OCCO2)c1ccccc1I | > 100 µM | > 100 µM | > 100 µM | > 100 µM | > 100 µM | > 100 µM | > 100 µM | > 100 µM | > 100 µM | > 100 µM | > 100 µM | > 100 µM | > 100 µM |  | > 100 µM | > 100 µM | > 100 µM | > 100 µM |  | > 100 µM
10 | C=CCN1/C(=C2\SC(=S)N(c3ccc(C)cc3)C2=O)Sc2c1nc[nH]c2=O | > 100 µM | > 100 µM | > 100 µM | > 100 µM | > 100 µM |  |  |  | > 100 µM | > 100 µM | > 100 µM | > 100 µM | > 100 µM | > 100 µM | > 100 µM | > 100 µM | > 100 µM | > 100 µM |  | > 100 µM
11 | CCN(CC)C(=S)SC(C(=O)Nc1nnc(-c2ccccc2)o1)c1ccccc1 (stereo unspecified) | 42 µM | 74.5 µM | 32.3 µM | > 100 µM | 74.7 µM | 41.1 µM | 47.7 µM | > 100 µM | 24.5 µM | > 100 µM | 61.4 µM | 23.9 µM |  | 62 µM | 17 µM | 41.8 µM | 49.2 µM | > 100 µM | > 100 µM | 
12 | C/C=C1\CN2CCc3c([nH]c4ccccc34)C2C=C1CCO (stereo unspecified) |  | > 340 µM | > 340 µM | > 340 µM | > 340 µM |  |  |  | > 340 µM | > 340 µM | > 340 µM |  | > 340 µM | > 340 µM | > 340 µM | > 340 µM | > 340 µM | > 340 µM |  | > 340 µM
13 | CC(C)Oc1cccc(N2C(=NCCc3c[nH]c4ccccc34)Nc3ccncc3S2(=O)=O)c1 | > 100 µM | > 100 µM | > 100 µM | > 100 µM | > 100 µM | > 100 µM | > 100 µM |  | > 100 µM | > 100 µM | > 100 µM | > 100 µM | > 100 µM | > 100 µM | > 100 µM | > 100 µM | > 100 µM | > 100 µM | > 100 µM | > 100 µM
